Measured values as given in patent publication US12138256B2, “Treatment of cardiopulmonary disorders” (Bayer Aktiengesellschaft, priority 2021, dated 2024).
Like-named read-outs stand apart in the source and are kept apart here.

Tests used:
[1] = system: plasma proteins; experiment: Protein binding via Transil assay, rat plasma; assay type: in vitro ADME; details: rat plasma
Excerpt: The distribution of a test substance between Transil® (phosphatidylcholine lipid bilayers immobilized on silica beads) and plasma is a characteristic feature of any pharmaceutical compound and is dependent on its extent of binding to plasma proteins. By comparing the distribution between Transil® and buffer with the distribution between Transil® and plasma of any species of interest, the unbound fraction in the plasma of the respective animal species can be calculated in vitro. The respective plasma and buffer concentrations were determined via a radioactivity analysis. A detailed description of the method and its validation was published by Schuhmacher et al. (2).

[2] = Phase I single dose inhaled, inhaled + charcoal block, oral and intravenous: pharmacokinetics and lung deposition (C-4.3); assay type: in vivo, human; details: for bioavailability / half-life: male, human, plasma; for half-life: read-out: elimination half-life (converted)
Protocol: Healthy white male subjects, aged 18 to 45 years with a body mass index (BMI) above/equal 18.5 and below/equal 29.9 kg/m^2 were treated in a clinical phase I study with a single inhaled dose of 1000 μg (nominal dose), a single inhaled dose of 1000 μg (nominal dose)+charcoal block, a single oral dose of 1000 μg and a single infusion over 2 h of 100 μg of example 4. As the bioavailability of an intravenous application is generally 100% per definition and therefore higher than in case of an oral or […] administration, the intravenous dose was carefully selected to be lower than the oral and inhaled dose to avoid higher plasma concentration resulting from a high IV dose and potential side effect, e.g. reduction in blood pressure or syncope. Therefore, 100 μg was selected for the IV dose in this investigation. Seven days washout period between treatments was applied. The subjects swallowed a solution for oral administration (20 ml comprising 1000 μg, see under D-2, table 50). The subjects received a solution as a single infusion over 2 hours (see under D-2 table 50). The subjects inhaled the drug powder from capsules (see under D-1, e.g. tables 17 and 20) inserted into a handheld inhalation device by one deep inhalative breath. After inhalation of the dry powder formulation of this drug, some parts of the nominal dose remain in the capsule and the device, the dose which reaches the body at the mouthpiece is called the emitted dose. The emitted dose can be calculated/determined as followed: nominal dose−(remains in the capsule+remains in the device). After inhalation of the dry powder, one part of the emitted dose enters the gastrointestinal tract (GIT) and is called the oral part of the emitted dose, the other part of the emitted dose which reaches the lung through the respiratory airways is called the lung dose and represents the lung deposited dose. As the lung is the target organ of the effect, the lung deposited dose must be quantified. Lung deposition can be indirectly estimated, by determining the part of the nominal dose which reaches the GIT and the remains in the capsule and the device. To investigate and determine lung deposition, the following investigations were done (see also FIG. 77): • 1—Inhaled application of a single dose of 1000 μg of the dry powder. • 2—Inhaled application of a single dose of 1000 μg of the dry powder in combination with oral administration of charcoal block. The charcoal block capped the oral absorption of GIT part of the dose, as example 4 completely adsorbed to charcoal block. This implies that the concentrations of example 4 measured reach the systemic circulation via the lung. • 3—Administration of a single oral dose of 1000 μg example 4 to determine the oral absorption. • 4—Administration of a 2 h infusion of example 4 to investigate the elimination.
Plasma concentrations of example 4 were measured after all different types of administrations, in addition the remains in the device and the capsule were measured after inhaled application. […] The longer terminal half-life after inhalation can be explained by the formation of a pulmonary depot of example 4 in the lungs from which the substance is continuously transferred to the circulatory system.
The emitted dose is calculated to be 720 μg, as the remains in the capsule were 160 μg and the remains in the device were 120 μg, see FIG. 79.

## O=C(O)c1ccc(CCN(CCc2ccccc2OCc2ccc(-c3ccc(C(F)(F)F)cc3)cc2Cl)[C@H]2CCCc3nc(C(=O)O)ccc32)cc1 [comparative example 11, (5S)-5-{[2-(4-carboxyphenyl)ethyl][2-(2-{[3-chloro-4′-(trifluoromethyl)[biphenyl]-4-yl]methoxy}phenyl)ethyl]amino}-5,6,7,8-tetrahydroquinoline-2-carboxylic acid]
[1]
  fraction unbound, times lower than comparative example 1: 1.6 times

## O=C(O)c1ccc(CCN(CCc2ccccc2OCc2ccc(-c3ccc(C(F)(F)F)cc3)cc2Cl)[C@H]2CCCc3nc(C(=O)O)ccc32)cc1 [example 4, (5S)-{[2-(4-Carboxyphenyl)ethyl][2-(2-{[3-chloro-4′-(trifluoromethyl)biphenyl-4-yl]methoxy}phenyl)-ethyl]amino}-5,6,7,8-tetrahydroquinoline-2-carboxylic acid]
[2]; after inhalation of 1000 μg in humans
  emitted dose: 720 µg
[2]; inhaled 1000 μg
  oral part of the dose: approximately 13 % of the nominal dose
[2]; inhaled or intranasal, 1000 μg, dry powder inhaled with charcoal (lung dose), read-out: absolute bioavailability
  bioavailability: 16.3%
[2]; inhaled or intranasal, 1000 μg, dry powder inhaled without charcoal, read-out: absolute bioavailability
  bioavailability: 18.8%
[2]; inhaled or intranasal, 1000 ug, inhaled 1000 μg with charcoal
  half-life: 16.1 h
[2]; inhaled or intranasal, 1000 ug, inhaled 1000 μg without charcoal
  half-life: 15.1 h
[2]; inhaled or intranasal, 1000 ug, read-out: relative bioavailability, inhaled with charcoal block to inhaled without
  bioavailability: 86.9%
[2]; iv, 100 μg, intravenous, 100 μg infusion over 2 h
  half-life: 0.26 h
[2]; po, 1000 ug, oral, 1000 μg solution
  half-life: 4.43 h
